Values of other authors, collected in patent US20180256731A1, “NOVEL INSULIN ANALOG AND USE THEREOF” (HANMI PHARM. CO., LTD, priority 2013, published 2018).

Conditions: commercially available long-acting insulin

Substance	lasting for (duration) [h]
insulin detemir	18 to 22
insulin glargine	20 to 22
